For orientation: half-life means the time in which the quantity being followed falls by half. Low values mean fast loss, high ones slow loss.

Molecules are shown by their SMILES.

Data set [1] can be described thus: Determination of the half-life in vivo by imaging healthy mice with 68Ga-TEFAPI-06. The conditions noted are these: PET imaging, SUV at the heart, 68Ga label, tail vein injection; for half-life: mouse, blood, intravenous, 37 MBq. Here is the method:
A germanium-gallium generator was eluted with 5 mL of 0.6 M high-purity hydrochloric acid to obtain Ga-68 hydrochloric acid solution. 1 mL of the eluted Ga-68 solution was taken, 100 μL of 3M sodium hydroxide and 130 μL of 3M sodium acetate were added to adjust the acidity, the final pH was 4.0, 50 μg of TEFAPI-06 precursor was added, and the reaction mixture was heated to 90° C., and maintained at the temperature for 10 minutes. The reaction solution was passed through a C18 column to remove free ions, and then the C18 column was eluted with ethanol solution. Labeled ^68Ga-TEFAPI-06 was obtained.
37 MBq labeled product was taken, 200 μL of normal saline was added for dilution, the drug was drawn with an insulin syringe for later use, and ethanol content in the drug was not higher than 5%. Healthy mice were anesthetized in advance and then placed on a PET/CT collection bed and an indwelling needle was placed at the tail vein. The syringe was attached to the indwelling needle, and collection of PET data was started at the zero moment of needle pushing. Collection time points were 0-60 min, 2 h, 3 h, 4 h, and 5 h respectively. After the collection, the data was reconstructed with professional software, and reconstruction conditions were to reconstruct the data at intervals of every minute for the first 5 minutes, reconstruct the data every 5 minutes in 5-60 minutes, and reconstruct the data at each of the other time points. The collected data was processed by PET reconstruction software to obtain continuous image. In PET processing software, a fixed region was depicted at the heart of the mouse, and SUV-Mean and SUV-Max values at the heart were obtained. The obtained SUV was simulated via data processing software.

In data set [2] the test system is PDX mouse model of pancreatic cancer. Kind of data set: Long-duration PET imaging with 86Y-TEFAPI-06 in a PDX mouse model of pancreatic cancer. The conditions noted are these: after 18 hours. The format is in vivo. As to the method:
Y-86 is a positron nuclide with half-life of 14.6 hours and can be radiolabeled with DOTA, and therefore, is very suitable for long-duration detection of the distribution of TEFAPI molecule in vivo. 1 mL of Y-86 hydrochloric acid was taken, 100 μL of 3M sodium hydroxide and 130 μL of 3M sodium acetate were added to adjust acidity, the final pH was 4.0, 50 μg of TEFAPI-06 precursor was added, and the reaction mixture was heated to 90° C., and maintained at the temperature for 10 minutes. The reaction solution was passed through a C18 column to remove free ions, and then the C18 column was eluted with ethanol solution. Labeled ^86Y-TEFAPI-06 was obtained. The labeled ^86Y-TEFAPI-06 was diluted with normal saline, and 7.4 Mbq of the resulting solution was injected to each mouse. PET scanning imaging was performed at 0.5, 2, 6, 12, 18, 24 and 36 h after injection, and PET image processing software was used for reconstruction. The obtained PET image is shown in FIG. 3, SUV values were marked at the tumor and heart of the mouse, and a curve was obtained based on the change of the SUV value with time.

In another data set the test system is FAP. Kind of data set: Competitive inhibition experiment of TEFAPI-06 in mice with PDX pancreatic cancer (68Ga-FAPI-04 PET). The format is in vivo. Here is the method:
In order to verify the specificity of TEFAPI-06 against a FAP target, the inventors performed PET imaging on the same batch of mice before and after inhibition in the competitive inhibition experiment. According to the Y-86 long-duration PET imaging, the uptake of the tumor reached a peak between 18 hours and 24 hours after drug injection. Therefore, ^68Ga-FAPI-04 imaging was first performed on tumor-bearing mice to determine that the mice had tumor uptake. After 48 hours of standing to ensure metabolism of ^68Ga-FAPI-04, two mice were injected with 300 μg of TEFAPI-06 molecules, and 18 hours after injection, PET molecular imaging of ^68Ga-FAPI-04 was performed on the mice injected with TEFAPI-06 molecules.

In another data set the test system is PDX pancreatic cancer. Kind of data set: Treatment of PDX pancreatic cancer in mice with 177Lu-TEFAPI-06. As to conditions: Lu-177 label, treatment dose 3.7 MBq. The format is in vivo. From the text: There were 5 mice in each group. The treatment dose was 3.7 MBq. […] In order to evaluate the therapeutic effect, the inventors performed physical examination via FAPI-04 imaging on mice before and after the treatment, and the results are shown in FIG. 5.

For the molecule `N#C[C@@H]1CC(F)(F)CN1C(=O)CNC(=O)c1ccnc2ccc(OCCCN3CCN(C(=O)CN4CCN(CC(=O)O)CCN(CC(=O)O)CCN(CC(=O)O)CC4)CC3)cc12` [FAPI-04, reference compound], the half-life in data set [1] was found to be 26 min.
In data set [1], `N#C[C@@H]1CC(F)(F)CN1C(=O)CNC(=O)c1ccnc2ccc(OCCCN3CCN(C(=O)[C@H](CCCCNC(=O)CN4CCN(CC(=O)O)CCN(CC(=O)O)CCN(CC(=O)O)CC4)NC(=O)CCCC(=O)NC(CCCCNC(=O)CCCc4ccc(I)cc4)C(=O)O)CC3)cc12` (some centres unmarked) [TEFAPI-06] showed a blood half-life of 398 min and a half-life of 400 min. Also, in data set [2], the kidney metabolism result is on record as “basically cleared” and the “tumor/normal tissue uptake ratio” value was “greater than 10”. Further, the “tumor uptake of 68Ga-FAPI-04 after injection of TEFAPI-06 (inhibition)” value with FAP (300 μg TEFAPI-06, 18 hours before 68Ga-FAPI-04 PET, read 30 minutes after injection) is recorded as “basically no additional uptake at the tumor”. For the same molecule, the “target site (specificity)” value in the data set with FAP (conclusion of competitive inhibition experiment) is “FAP”. The “tumor growth (tumor growth curve)” value in the data set with PDX pancreatic cancer is “significantly inhibited”.

For the origin of these results see patent publication US20240042066A1, “FIBROBLAST ACTIVATION PROTEIN INHIBITOR” (BOOMRAY PHARMACEUTICALS CO., LTD., priority 2020, published 2024).
